The values below come from patent US20100216886A1, “POLYMORPHS OF N2-(1,1'-BIPHENYL-4-YLCARBONYL)-N1-[2-(4-FLUOROPHENYL)-1,1-DIMETHYLETHYL]-L-ALPHA-GLUTAMINE” (Wyeth, priority 2006, published 2010).

Values after ≈ are worked out from the molar mass of the structure shown.

Data set [1] in a line: in vitro. Particulars: human, Caco-2, pH 7.4.
In data set [2] the test system is CACO-2. Conditions: human, Caco-2, pH 7.4.
Data set [3] in a line: physchem. As to the method:
The pH solubility profile was generated first with Sample D containing polymorph Form A, and then with Sample F containing polymorph Form B, in HCl/NaOH solutions. After 24 hour equilibration, suspensions were centrifuged and the supernatants assayed by HPLC.
The solubility data was analyzed as a function of pH using the Henderson-Hasselbach equation:
Solubility=S0·[10^(PH-pKa)+1],
where S0 is the intrinsic solubility of the free acid.

Data set [4] can be described thus: Oral bioavailability in dog. Particulars: in vivo, read-out: Oral bioavailability (F %). On the procedure: (§1) Solubility is enhanced slightly in the 2% Tween/0.5% methylcellulose toxicology vehicle, ranging from […]. 2% Tween may also increase GI membrane permeability.
(§2) A prolonged absorption phase was observed together with decreasing bioavailability with increasing dose in both animal species. […] However, the absorption at pharmacological doses seemed reasonably complete albeit with delayed Tmax at lower GI when the drug is more soluble.

Data set [5] can be described thus: Second CACO-2 study, propranolol as reference. Conditions: human, Caco-2. The class given is in vitro ADME. The source says: (§3) The second CACO-2 study gave somewhat different results (Table 12). Because metoprolol interferes with the LC/MS assay, propranolol, which has a permeability that is […] metoprolol, was used as the FDA calibration compound. The apical pH was controlled at 6 and basolateral pH at pH 7. In addition, verapamil was used as a competitive inhibitor of the Pgp (P-glycoprotein) transporter. The ratios to propranolol were 1.00 and 0.77 with and without verapamil. […] The B→A/A→B ratios were low at 0.3 and 0.3, with and without verapamil, respectively, indicating again no efflux […].

Data set [6] concerns CACO-2. In words: Second CACO-2 study, propranolol as reference. The data set is classed as in vitro ADME. Particulars: for Ratio to Propranolol: A → B.
Source text: as §3

A short description of data set [7]: Solubility in water and toxicology vehicle (animal formulation). The data set is classed as physicochemical. On the procedure: as §1
Data set [8] in a line: Solubility in various solvents at 25° C. and 50° C. The class given is physicochemical.
A short description of data set [9]: Slurry in water at 50° C. (polymorphic transformation). The class given is physicochemical. Particulars: slurry in water at 50° C. for 12-24 hr. As to the method: Powder XRD patterns comparing the starting material to polymorph pseudo Form A are shown in FIG. 34, and DSC thermograms of both batches at 50° C. are shown in FIG. 35.
Data set [10] is described as follows: Oral bioavailability in rat. Particulars: in vivo, read-out: Oral bioavailability (F %). As to the method:
as §1, §2

Data set [11] in a line: First CACO-2 study, metoprolol as reference. Particulars: human; for recovery: Caco-2, pH 7.4, % Recovery, pH 7.4.
Data set [12] relates to CACO-2. Nature of the data set: First CACO-2 study, metoprolol as reference. Conditions: for Ratio to Metoprolol: pH 7.4.
Data set [13] is described as follows: Forced degradation study (solution stability). The data set is classed as physicochemical. Particulars: 387 μg/mL with 25% acetonitrile in acid, base, peroxide and water under heat and light stress. On the procedure: A forced degradation study was performed to generate potential degradation products and assess stability liabilities.
A short description of data set [14]: In situ rat perfusion model, metoprolol as reference. The data set is classed as in vivo. Conditions: rat. The text has this: The permeability was 18.2 nm/sec, which is higher than the 14.5 nm/sec value obtained for metoprolol (Table 13).

In [1], `C[C@H]1O[C@@H](O[C@H]2[C@@H](O)C[C@H](O[C@H]3[C@@H](O)C[C@H](O[C@H]4CC[C@@]5(C)[C@H](CC[C@@H]6[C@@H]5C[C@@H](O)[C@]5(C)[C@@H](C7=CC(=O)OC7)CC[C@]65O)C4)O[C@@H]3C)O[C@@H]2C)C[C@H](O)[C@@H]1O` [DigoxinS] registered a Papp A→B of 2.06 ×10⁻⁶ cm/s and a Papp B→A of 29.4 ×10⁻⁶ cm/s. In [2], the “% Recovery” value is given as 117%.
With `CC(C)(Cc1ccc(F)cc1)NC(=O)[C@H](CCC(=O)O)NC(=O)c1ccc(-c2ccccc2)cc1` [Compound (I), N^2-(1,1′-biphenyl-4-ylcarbonyl)-N^1-[2-(4-fluorophenyl)-1,1-dimethylethyl]-L-α-glutamine], in data set [3], the pKa amounted to 5.3. In data set [3] (aqueous buffer, thermodynamic from solid, S0 (intrinsic solubility of the free acid)), this compound came in with a solubility at 24 h of 4.5 µg/mL (≈ 0.00944 mM). Also, the bioavailability in [4] (Tox suspension, 25 mg/kg) is approximately 100%; in data set [4] (capsule containing neat drug) it was 65%; in data set [10] (100 mg/kg), approximately 100%; in [10] (Tox suspension, 25 mg/kg) it was 29%. The Papp A→B was 62.4 ×10⁻⁶ cm/s in [5] (A → B, apical pH 6, basolateral pH 7, without verapamil) and 14.9 ×10⁻⁶ cm/s in [11] (Caco-2, pH 7.4). Besides, the Papp B→A in data set [5] (B → A, apical pH 6, basolateral pH 7, without verapamil) came out at 18.5 ×10⁻⁶ cm/s; in data set [11] (Caco-2, pH 7.4), 37.4 ×10⁻⁶ cm/s. Further, the efflux ratio in data set [5] (without verapamil, read-out: Ratio of B→A/A→B) was determined as 0.3; in [11] (Caco-2, pH 7.4), 2.36. Besides, the “Ratio to Propranolol” value is 0.77 in data set [6] (plus Verapamil) and 1.00 in [6] (without verapamil). In addition, the “mean ratio to propranolol” value in data set [6] (average of values with and without verapamil) came out at 0.88. For the same compound, the “Ratio of B→A/A→B” value in data set [6] (plus Verapamil) and in [6] (without verapamil) was 0.3 in each case. In addition, the Permeability classification result in data set [6] (versus propranolol) is listed as “low permeability”; in [12] (pH 7.4, versus metoprolol), “low permeability”; in [14] it was “high permeability”. Also, the solubility in [7] (2% Tween/0.5% methylcellulose toxicology vehicle, aqueous with cosolvent or surfactant or cyclodextrin, read-out: Solubility in toxicology vehicle) was 220 to 470 µg/mL (≈ 0.462 to 0.986 mM); in data set [7] (water, pH 5.5, water, read-out: solubility in water), less than 100 µg/mL; in [8] (Water, 25° C.), 1600 µg/mL (≈ 3.36 mM); in data set [8] (Water, 50° C.), 1800 µg/mL (≈ 3.78 mM); in [8] (organic solvent or mixture, Acetonitrile, 25° C.), 43000 µg/mL (≈ 90.2 mM); in [8] (organic solvent or mixture, Acetonitrile, 50° C.), more than 133000 µg/mL. In addition, the solubility in data set [8] (organic solvent or mixture, EtAc (ethyl acetate), 25° C.) is more than 109000 µg/mL; in data set [8] (organic solvent or mixture, Ethanol, 25° C.), more than 137000 µg/mL; in [8] (organic solvent or mixture, Heptane, 25° C.), 700 µg/mL (≈ 1.47 mM); in data set [8] (organic solvent or mixture, Isopropyl acetate (IPAc), 25° C.), 76100 µg/mL (≈ 160 mM); in data set [8] (organic solvent or mixture, Isopropyl acetate (IPAc), 50° C.), more than 123000 µg/mL; in data set [8] (organic solvent or mixture, Isopropyl alcohol (IPA), 25° C.), more than 122000 µg/mL. In addition, the solubility was 4300 µg/mL (≈ 9.02 mM) in data set [8] (organic solvent or mixture, Toluene, 25° C.) and 15600 µg/mL (≈ 32.7 mM) in [8] (organic solvent or mixture, Toluene, 50° C.). Besides, the “resulting pH” value in data set [7] (water) is given as “around 5.5”. The “Change of powder XRD pattern or melting point / polymorphic transformation” value in [9] is reported as “not observed”. Moreover, the recovery in data set [11] (A → B) was 100%; in [11] (B → A), 156%. The “Ratio to Metoprolol” value was 0.25 in data set [12] (A → B); 0.59 in data set [12] (B → A); 1.26 in data set [14] (in vivo, 20 μg/mL). The Forced degradation result in [13] was “subject to acid and peroxide degradation”. The Papp at 20 μg/mL in data set [14] came out at 1.82 ×10⁻⁶ cm/s. Also, the “Peff × 10^−1 (μm/sec)” value in data set [14] (in vivo, 20 μg/mL) is given as 1.82 × 10^−1 μm/sec.

By Papp A→B is commonly meant how fast a substance crosses the layer from the apical side. The Papp B→A is the apparent permeability from the basolateral to the apical side of a cell layer. As a reminder, the pKa is the pH at which an ionisable group is half protonated. In general, solubility refers to the dissolved amount per volume that the medium holds. The term bioavailability denotes the share of a dose that reaches the circulation, judged against a reference dose that is usually intravenous. As usually defined, the Papp is a coefficient for how fast a substance crosses the barrier. A high value points to fast passage.
